Measurements reported in patent US20170066759A1, “AROMATIC 5-MEMBERED HETEROCYCLIC DERIVATIVE HAVING TRPV4-INHIBITING ACTIVITY” (Shionogi & Co., Ltd., priority 2012, published 2017).

Tests used:
[1] = Test Example 11: BA test (oral absorbability); assay type: in vivo; conditions: plasma; Mouse, oral administration 1 mg/kg
Protocol: Materials and methods for experiments to evaluate oral absorbability
(1) Experimental animals: rats or mice were used. (2) Breeding condition: rats or mice were allowed free access to solid feed and sterilized tap water (3) Setting of dosage and grouping: Oral administration and intravenous administration were performed with the predetermined dosage. Grouping was set as below. (Dosage varied depending on each compound)
Oral administration 1 to 30 mg/kg (n=2 to 3)
Intravenous administration 0.5 to 10 mg/kg (n=2 to 3)
(4) Preparation of administered liquid: Oral administration was performed using a solution or a suspension. Intravenous administration was performed after solubilization. (5) Method of Administration: In oral administration, compulsory administration to the stomach was conducted using an oral sonde. […] (6) Evaluation items: Blood was chronologically collected, and then concentration of a compound of the present invention in blood plasma was measured using a LC/MS/MS. […]
(7) Statistical analysis: With regard to a shift in plasma concentration of the compound of the present invention, the area under the plasma concentration-time curve (AUC) was calculated using a nonlinear least-squares program, WinNonlin (a registered trademark). Bioavailability (BA) was calculated from the AUCs of the oral administration group and the intravenous administration group. […]

CYP3A4 = target: T1, CYP3A4 (Homo sapiens, UniProt P08684); test: Test Example 6: CYP inhibition test, terfenedine hydroxylation (CYP3A4); assay type: in vitro ADME; conditions: pooled human hepatic microsome, 1 μmol/L terfenedine
T1 construct: enzyme, pooled human hepatic microsome 0.2 mg protein/mL; from tissue; host or cells: pooled human liver microsomes
Protocol: (§1) Test Example 6 CYP Inhibition Test […] The reaction conditions were as follows: substrate, 0.5 μmol/L ethoxyresorufin (CYP1A2), 100 μmol/L tolbutamide (CYP2C9), 50 μmol/L S-mephenytoin (CYP2C19), 5 μmol/L dextromethorphan (CYP2D6), 1 μmol/L terfenedine (CYP3A4); reaction time, 15 minutes; reaction temperature, 37° C.; enzyme, pooled human hepatic microsome 0.2 mg protein/mL; concentration of the compound of the present invention, 1, 5, 10, 20 μmol/L (four points). Each five kinds of substrates, human hepatic microsome, and the compound of the present invention in 50 mmol/L Hepes buffer as a reaction solution were added to a 96-well plate at the composition as described above. NADPH, as a cofactor was added to initiate metabolism reactions as markers and, after the incubation at 37° C. for 15 minutes, a methanol/acetonitrile=1/1 (v/v) solution was added to stop the reaction. After the centrifugation at 3000 rpm for 15 minutes, resorufin (CYP1A2 metabolite) in the supernatant was quantified by a fluorescent multilabel counter and toltributamide hydroxide (CYP2[…] metabolite), mephenytoin 4' hydroxide (CYP2C19 metabolite), […], and terfenadine alcohol (CYP3A4 metabolite) were quantified by LC/MS/MS. Addition of only DMSO being a solvent dissolving the compound of the present invention to a reaction system was adopted as a control (100%). Remaining activity (%) was calculated at each concentration of the compound of the present invention added as the solution and IC50 was calculated by reverse presumption by a logistic model using a concentration and an inhibition rate.

CYP2C9 = target: T2, CYP2C9 (Homo sapiens, UniProt P11712); test: Test Example 6: CYP inhibition test, tolbutamide methyl-hydroxylation (CYP2C9); assay type: in vitro ADME; conditions: pooled human hepatic microsome, 100 μmol/L tolbutamide
T2 construct: enzyme, pooled human hepatic microsome 0.2 mg protein/mL; from tissue; host or cells: pooled human liver microsomes
Protocol: as §1

CYP2C19 = target: T3, CYP2C19 (Homo sapiens, UniProt P33261); test: Test Example 6: CYP inhibition test, mephenytoin 4′-hydroxylation (CYP2C19); assay type: in vitro ADME; conditions: pooled human hepatic microsome, 50 μmol/L S-mephenytoin
T3 construct: enzyme, pooled human hepatic microsome 0.2 mg protein/mL; from tissue; host or cells: pooled human liver microsomes
Protocol: as §1

hERG (IKr) = target: T4, hERG (IKr) (Homo sapiens, UniProt Q12809); test: Test Example 10: hERG test (IKr, whole cell patch clamp); assay type: cell-based; conditions: HEK293 cells expressing hERG channel, pH 7.4, 1 μmol/L of the compound, read-out: hERG % inhibition of tail peak current (IKr)
T4 construct: expressed in transfected cells; host or cells: HEK293
From the text: For the purpose of assessing risk of an electrocardiogram QT interval prolongation of a compound of the present invention, effects of the compound of the present invention on delayed rectifier K^+ current (IKr), which plays an important role in the ventricular repolarization process, was studied using HEK293 cells expressing human ether-a-go-go related gene (hERG) channel.
After a cell was retained at a membrane potential of −80 mV by whole cell patch clamp method using an automated patch clamp system (PatchXpress 7000A, Axon Instruments Inc.), IKr induced by depolarization pulse stimulation at +40 mV for 2 seconds and, further, repolarization pulse stimulation at −50 mV for 2 seconds was recorded. […] From the recording IKr, an absolute value of the tail peak current was measured based on the current value at the resting membrane potential using an analysis software (DataXpress ver. 1, Molecular Devices Corporation). Further, the % inhibition relative to the tail peak current before application of the compound of the present invention was calculated, and compared with the vehicle-applied group (0.1% dimethyl sulfoxide solution) to assess influence of the compound of the present invention on IKr. […]

[2] = target: T5, human TRPV4 (hTRPV4/CHO cells) (Homo sapiens, UniProt Q9HBA0); test: Test Example 1: TRPV4 inhibitory activity (IC50 value), 4α-PDD stimulation, Fluo4 calcium fluorescence (FLIPR TETRA); assay type: cell-based; conditions: Test Example 1, 4α-PDD stimulation, read-out: Test 1 IC50
T5 construct: expressed in transfected cells; host or cells: CHO-K1
T5 sequence (Q9HBA0 whole entry): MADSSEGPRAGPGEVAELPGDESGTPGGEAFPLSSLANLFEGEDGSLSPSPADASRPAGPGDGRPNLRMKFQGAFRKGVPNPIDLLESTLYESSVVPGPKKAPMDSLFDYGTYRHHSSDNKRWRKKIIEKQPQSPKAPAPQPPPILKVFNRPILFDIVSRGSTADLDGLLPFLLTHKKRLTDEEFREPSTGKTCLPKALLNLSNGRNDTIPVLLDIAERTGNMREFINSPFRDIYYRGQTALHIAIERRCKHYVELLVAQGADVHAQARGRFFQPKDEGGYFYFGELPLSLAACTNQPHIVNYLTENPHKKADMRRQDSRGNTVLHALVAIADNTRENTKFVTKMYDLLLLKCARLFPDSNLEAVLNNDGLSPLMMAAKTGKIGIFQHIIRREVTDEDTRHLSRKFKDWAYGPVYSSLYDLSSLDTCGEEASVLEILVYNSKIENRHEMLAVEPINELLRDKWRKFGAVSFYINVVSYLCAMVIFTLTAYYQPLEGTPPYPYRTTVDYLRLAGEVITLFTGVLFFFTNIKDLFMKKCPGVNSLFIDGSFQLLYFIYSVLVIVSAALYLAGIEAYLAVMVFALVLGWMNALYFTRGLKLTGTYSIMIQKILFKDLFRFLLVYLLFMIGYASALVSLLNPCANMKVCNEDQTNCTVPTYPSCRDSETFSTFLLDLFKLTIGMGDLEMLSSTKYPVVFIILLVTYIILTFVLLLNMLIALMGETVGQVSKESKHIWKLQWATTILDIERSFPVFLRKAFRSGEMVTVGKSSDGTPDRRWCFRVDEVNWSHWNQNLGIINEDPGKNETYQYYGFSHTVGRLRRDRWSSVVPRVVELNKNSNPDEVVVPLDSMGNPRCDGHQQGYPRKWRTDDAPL

T1 sequence (P08684 whole entry): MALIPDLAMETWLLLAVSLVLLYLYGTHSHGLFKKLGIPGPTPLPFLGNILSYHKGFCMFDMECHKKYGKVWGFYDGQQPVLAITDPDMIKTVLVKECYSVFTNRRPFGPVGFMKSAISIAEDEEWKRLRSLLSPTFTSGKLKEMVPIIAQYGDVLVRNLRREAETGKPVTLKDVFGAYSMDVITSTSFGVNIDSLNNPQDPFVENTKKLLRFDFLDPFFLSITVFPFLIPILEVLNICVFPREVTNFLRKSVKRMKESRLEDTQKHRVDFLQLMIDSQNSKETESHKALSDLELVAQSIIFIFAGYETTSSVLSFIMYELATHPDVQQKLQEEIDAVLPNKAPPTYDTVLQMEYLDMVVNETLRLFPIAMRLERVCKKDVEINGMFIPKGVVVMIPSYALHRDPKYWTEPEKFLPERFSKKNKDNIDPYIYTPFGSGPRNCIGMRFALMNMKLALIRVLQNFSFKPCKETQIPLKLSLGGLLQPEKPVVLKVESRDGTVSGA
T4 sequence (Q12809 whole entry): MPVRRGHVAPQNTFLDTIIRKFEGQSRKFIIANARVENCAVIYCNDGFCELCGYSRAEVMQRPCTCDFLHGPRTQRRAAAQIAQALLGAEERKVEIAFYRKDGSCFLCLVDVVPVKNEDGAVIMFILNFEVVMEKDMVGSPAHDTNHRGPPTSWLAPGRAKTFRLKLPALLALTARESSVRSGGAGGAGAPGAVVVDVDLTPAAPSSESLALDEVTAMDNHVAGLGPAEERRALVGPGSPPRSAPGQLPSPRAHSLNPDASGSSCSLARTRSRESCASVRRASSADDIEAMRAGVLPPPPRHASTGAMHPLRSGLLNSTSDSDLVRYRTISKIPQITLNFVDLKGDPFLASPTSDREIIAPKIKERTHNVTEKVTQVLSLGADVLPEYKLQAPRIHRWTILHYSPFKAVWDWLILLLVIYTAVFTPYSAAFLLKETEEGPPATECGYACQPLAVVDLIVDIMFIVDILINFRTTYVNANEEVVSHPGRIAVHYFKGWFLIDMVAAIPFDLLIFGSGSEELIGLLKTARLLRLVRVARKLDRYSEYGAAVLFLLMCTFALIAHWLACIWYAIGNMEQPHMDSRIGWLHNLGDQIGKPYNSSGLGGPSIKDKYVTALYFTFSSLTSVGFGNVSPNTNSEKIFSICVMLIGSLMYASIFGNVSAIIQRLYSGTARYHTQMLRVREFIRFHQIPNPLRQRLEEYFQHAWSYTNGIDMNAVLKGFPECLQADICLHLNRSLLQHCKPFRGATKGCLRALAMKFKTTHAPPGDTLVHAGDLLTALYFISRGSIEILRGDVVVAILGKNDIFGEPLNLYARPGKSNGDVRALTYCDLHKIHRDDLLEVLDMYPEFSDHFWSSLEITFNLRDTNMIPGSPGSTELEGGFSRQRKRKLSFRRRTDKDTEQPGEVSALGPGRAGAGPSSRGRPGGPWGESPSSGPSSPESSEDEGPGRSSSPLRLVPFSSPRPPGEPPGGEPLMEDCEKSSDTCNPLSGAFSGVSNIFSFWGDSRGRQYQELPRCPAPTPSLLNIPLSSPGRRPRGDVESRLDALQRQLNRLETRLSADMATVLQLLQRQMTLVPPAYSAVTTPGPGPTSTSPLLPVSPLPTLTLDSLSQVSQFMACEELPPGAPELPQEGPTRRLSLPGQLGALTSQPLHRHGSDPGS
T2 sequence (P11712 whole entry): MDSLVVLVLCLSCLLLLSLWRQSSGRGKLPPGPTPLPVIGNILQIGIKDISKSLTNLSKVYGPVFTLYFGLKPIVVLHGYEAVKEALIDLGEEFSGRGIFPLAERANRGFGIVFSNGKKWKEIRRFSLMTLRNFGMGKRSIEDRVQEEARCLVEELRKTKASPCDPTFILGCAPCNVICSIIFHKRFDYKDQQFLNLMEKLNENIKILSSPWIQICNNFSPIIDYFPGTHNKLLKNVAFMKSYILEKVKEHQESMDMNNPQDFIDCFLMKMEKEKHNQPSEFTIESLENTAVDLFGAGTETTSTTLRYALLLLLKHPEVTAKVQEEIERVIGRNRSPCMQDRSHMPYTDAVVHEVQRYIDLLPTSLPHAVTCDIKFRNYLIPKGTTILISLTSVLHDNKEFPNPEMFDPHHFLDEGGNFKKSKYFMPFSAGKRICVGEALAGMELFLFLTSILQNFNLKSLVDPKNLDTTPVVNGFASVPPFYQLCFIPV
T3 sequence (P33261 whole entry): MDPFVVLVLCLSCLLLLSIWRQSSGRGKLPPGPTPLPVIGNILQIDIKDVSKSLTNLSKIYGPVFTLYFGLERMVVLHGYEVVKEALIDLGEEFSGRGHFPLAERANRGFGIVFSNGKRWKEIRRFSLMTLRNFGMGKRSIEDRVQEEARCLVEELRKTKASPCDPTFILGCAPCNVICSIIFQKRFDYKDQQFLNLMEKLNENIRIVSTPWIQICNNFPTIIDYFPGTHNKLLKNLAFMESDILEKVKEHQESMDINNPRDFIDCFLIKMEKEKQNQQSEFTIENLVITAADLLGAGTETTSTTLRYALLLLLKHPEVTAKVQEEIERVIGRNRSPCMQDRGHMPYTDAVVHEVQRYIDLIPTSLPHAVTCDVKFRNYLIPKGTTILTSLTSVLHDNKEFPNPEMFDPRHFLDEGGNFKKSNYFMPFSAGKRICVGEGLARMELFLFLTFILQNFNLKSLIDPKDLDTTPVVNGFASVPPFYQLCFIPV

| Compound | bioavailability [1] [%] | IC50 (CYP3A4) [µM] | IC50 (CYP2C9) [µM] | IC50 (CYP2C19) [µM] | inhibition at 10 min, 1 μmol/L (hERG (IKr)) [%] | IC50 [2] [µM] |
| --- | --- | --- | --- | --- | --- | --- |
| Cc1nc(C)c(-c2csc(NC(=O)Cc3ccc(S(C)(=O)=O)cc3)n2)s1 [Compound I-17] | 54.6 | > 20 | > 20 | > 20 | – | – |
| Cc1nc(C)c(-c2csc(NC(=O)C3CCC(F)(F)C3)n2)s1 (stereo not drawn) [Compound I-18] | – | – | – | – | 6.1 | 0.1 to 1 |
